Reference: the RepoRT retention time repository (doi:10.1021/acs.analchem.2c02893)

experiment: RP, Thermo Scientific Acclaim RSLC 120 C18, 100 × 2.1 mm, 2.2 µm, 30 °C, 0.2 mL/min, estimated dead time 1.1 min; A: 90% water + 10% methanol + 0.01% formic acid + 5 mM ammonium formate, pH 3.61; B: methanol + 0.01% formic acid + 5 mM ammonium formate, pH 3.61; gradient (min/%B) 0/1 1/1 2/39 13/99.9 15/99.9 15.1/1 20.1/1; settings: stereoisomer not certain

Row | SMILES | LC retention time [min]
1 | CCn1cc(C(=O)O)c(=O)c2cc(F)c(N3CCNCC3)cc21 [Norfloxacin] | 4.46
2 | Nc1nc2c(ncn2CCC(CO)CO)c(=O)[nH]1 [Penciclovir] | 2.98
3 | CCCNC(=O)NS(=O)(=O)c1ccc(Cl)cc1 [Chlorpropamide] | 7.19
4 | COc1ccc2[nH]c(C)c(CCN(C)C)c2c1 [MeO-TMT (5-)] | 4.19
5 | CCCCNc1ccc(C(=O)OCCN(C)C)cc1 [Tetracaine] | 6.43
6 | CNC(=O)Oc1cc(C)c(S(C)=O)c(C)c1 (stereo not given) [Methiocarb-sulfoxide] | 4.86
7 | CCOC(=O)N1CCC(=C2c3ccc(Cl)cc3CCc3cccnc32)CC1 [Loratadine] | 11.5
8 | CCN(CCO)CCn1c(Cc2ccccc2)nc2c1c(=O)n(C)c(=O)n2C [Bamifylline] | 5.24
9 | CC(C)(C)C(=O)C(Oc1ccc(Cl)cc1)n1cncn1 (stereo not given) [Triadimefon] | 9.68
10 | CC(=O)OC1CCC2C3CCC4CC(=O)C=C(C)C4(C)C3CCC12C (stereo not given) [Metenolone acetate] | 12.5
11 | O=C(Nc1ccccc1)Nc1ccnc(Cl)c1 [Forchlorfenuron] | 8.53
12 | COC12CCC3(CC1C(C)(O)C(C)(C)C)C1Cc4ccc(O)c5c4C3(CCN1CC1CC1)C2O5 (stereo not given) [Buprenorphine (BN)] | 7.96
13 | COc1cc(C(=O)NCc2ccc(OCCN(C)C)cc2)cc(OC)c1OC [Trimethobenzamide] | 4.86
14 | COc1cc(CC(C)N)c(OC)cc1Br (stereo not given) [DOB] | 5.93
15 | CNc1nc(C)c(C)c(OC(=O)N(C)C)n1 [Pirimicarb-desmethyl] | 5.89
16 | O=C(Oc1cccc2cccnc12)c1nn(CCCCCF)c2ccccc12 [NPB-22-5F] | 10.3
17 | CCc1cccc(CC)c1N(COC)C(=O)CCl [Alachlor] | 10.3
18 | CCOC(=O)C(C)Oc1ccc(Oc2cnc3cc(Cl)ccc3n2)cc1 (stereo not given) [Quizalofop-ethyl] | 12.1

Row | SMILES | LC retention time [min]
19 | CN(C)c1ccc(C(=C2C=CC(=[N+](C)C)C=C2)c2ccccc2)cc1 [Malachite green (MG)] | 8.34
20 | CC12CCC(=O)C=C1CCC1C2CCC2(C)C1CCC2(C)O (stereo not drawn) [Testosterone- 17-alpha-methyl] | 10.4
21 | CNC(=O)ON=C(SC)C(=O)N(C)C [Oxamyl] | 3.77
22 | CCCCCCCCCCCCCC[N+](C)(C)Cc1ccccc1 [Benzyldimethyltetradecylammonium] | 12.2
23 | CNC(=O)Oc1cccc2c1OC(C)(C)O2 [Bendiocarb] | 7.02
24 | O=C(O)c1cn(-c2ccc(F)cc2)c2cc(N3CCNCC3)c(F)cc2c1=O [Sarafloxacin] | 4.83
25 | CNC(C)Cc1cccs1 (stereo not given) [Methiopropamine] | 3.69
26 | Cc1ccc(N)c(C)c1 [Dimethylaniline (2.4-) (Metabolite Amitraz)] | 5.04
27 | CCCSP(=S)(OCC)Oc1ccc(SC)cc1 (stereo not given) [Sulprofos (Bolstar)] | 12.8
28 | CC1=C(C(=O)Nc2ccccc2)S(=O)(=O)CCO1 [Carboxin-Oxy] | 5.59
29 | OCCN1CCN(CCCN2c3ccccc3C=Cc3ccccc32)CC1 [Opipramol] | 7.83
30 | CC(C)(Oc1ccc(C(=O)c2ccc(Cl)cc2)cc1)C(=O)O [Fenofibric acid] | 9.68
31 | O=C(c1cccc2ccccc12)c1cn(CCCCO)c2ccccc12 [JWH-073-M-4-OH-Butyl] | 9.56
32 | CN1CCCC1=O [N-Methyl-2-pyrrolidone] | 3.1
33 | CC12CCC(=O)C=C1CCC1C2C(=O)CC2(C)C(O)CCC12 (stereo not given) [11-Ketotestosterone] | 7.9
34 | Cc1[nH]c(=O)n(C(C)(C)C)c(=O)c1Cl [Terbacil] | 7.33
35 | CCCCCCCCCCCC[N+](C)(C)Cc1ccccc1 [Benzododecinium (Benzyl-dimethyl-dodecylammonium)] | 11.2
